Data from patent US9371281B2, “Indole derivatives as inhibitors of histone deacetylase” (Pharmacyclics LLC, priority 2006, dated 2016).

Columns and labels:
Format in all cases: biochemical
HDAC8 = molecular target: T1, HDAC8 (Homo sapiens, UniProt Q9BY41); assay: Inhibition of HDAC8 deacetylase activity in vitro
T1 sequence (Q9BY41 1-377): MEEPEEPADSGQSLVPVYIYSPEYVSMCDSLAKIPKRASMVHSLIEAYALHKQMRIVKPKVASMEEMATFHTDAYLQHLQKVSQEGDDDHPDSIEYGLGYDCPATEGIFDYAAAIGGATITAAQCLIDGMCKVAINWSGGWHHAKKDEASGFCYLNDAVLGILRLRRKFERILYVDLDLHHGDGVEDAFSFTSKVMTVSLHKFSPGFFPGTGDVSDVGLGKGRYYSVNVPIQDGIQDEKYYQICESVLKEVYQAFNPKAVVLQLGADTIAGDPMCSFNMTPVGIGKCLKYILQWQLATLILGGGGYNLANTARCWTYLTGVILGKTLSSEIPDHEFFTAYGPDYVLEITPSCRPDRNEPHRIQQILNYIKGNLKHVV

HDAC1 = HDAC1 (Homo sapiens, UniProt Q13547); assay: Inhibition of HDAC1 deacetylase activity in vitro; conditions: ratio of IC50 values
Sequence of HDAC1 (Q13547 whole entry): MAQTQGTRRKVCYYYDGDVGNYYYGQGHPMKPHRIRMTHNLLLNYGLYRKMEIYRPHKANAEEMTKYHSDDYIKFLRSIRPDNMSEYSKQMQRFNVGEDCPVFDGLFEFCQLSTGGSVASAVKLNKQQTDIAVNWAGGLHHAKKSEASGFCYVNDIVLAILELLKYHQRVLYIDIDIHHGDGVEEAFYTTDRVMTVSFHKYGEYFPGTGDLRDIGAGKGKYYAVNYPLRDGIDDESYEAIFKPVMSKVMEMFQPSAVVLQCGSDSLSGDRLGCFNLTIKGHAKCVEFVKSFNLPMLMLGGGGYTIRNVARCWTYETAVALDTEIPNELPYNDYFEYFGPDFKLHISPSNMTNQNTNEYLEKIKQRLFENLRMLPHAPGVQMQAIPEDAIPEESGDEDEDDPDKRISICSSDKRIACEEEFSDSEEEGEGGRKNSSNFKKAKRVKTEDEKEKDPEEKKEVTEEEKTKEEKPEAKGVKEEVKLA

HDAC2 = HDAC2 (Homo sapiens, UniProt Q92769); assay: Inhibition of HDAC2 deacetylase activity in vitro; conditions: ratio of IC50 values
Sequence of HDAC2 (Q92769 whole entry): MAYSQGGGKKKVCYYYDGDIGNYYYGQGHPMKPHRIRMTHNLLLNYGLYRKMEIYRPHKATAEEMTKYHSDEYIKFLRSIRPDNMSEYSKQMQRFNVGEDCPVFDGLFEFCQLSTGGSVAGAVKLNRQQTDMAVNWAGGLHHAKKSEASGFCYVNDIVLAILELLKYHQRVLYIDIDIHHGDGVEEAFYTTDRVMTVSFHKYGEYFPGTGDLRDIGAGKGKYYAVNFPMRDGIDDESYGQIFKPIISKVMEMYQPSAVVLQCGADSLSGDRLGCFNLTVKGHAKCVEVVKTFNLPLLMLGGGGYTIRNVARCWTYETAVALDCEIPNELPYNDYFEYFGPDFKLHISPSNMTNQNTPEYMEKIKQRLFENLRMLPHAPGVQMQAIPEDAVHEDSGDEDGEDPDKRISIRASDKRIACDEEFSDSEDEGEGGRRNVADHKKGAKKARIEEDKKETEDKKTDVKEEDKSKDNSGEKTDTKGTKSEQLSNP

HDAC3 = HDAC3 (Homo sapiens, UniProt O15379); assay: Inhibition of HDAC3 deacetylase activity in vitro; conditions: ratio of IC50 values
Sequence of HDAC3 (O15379 whole entry): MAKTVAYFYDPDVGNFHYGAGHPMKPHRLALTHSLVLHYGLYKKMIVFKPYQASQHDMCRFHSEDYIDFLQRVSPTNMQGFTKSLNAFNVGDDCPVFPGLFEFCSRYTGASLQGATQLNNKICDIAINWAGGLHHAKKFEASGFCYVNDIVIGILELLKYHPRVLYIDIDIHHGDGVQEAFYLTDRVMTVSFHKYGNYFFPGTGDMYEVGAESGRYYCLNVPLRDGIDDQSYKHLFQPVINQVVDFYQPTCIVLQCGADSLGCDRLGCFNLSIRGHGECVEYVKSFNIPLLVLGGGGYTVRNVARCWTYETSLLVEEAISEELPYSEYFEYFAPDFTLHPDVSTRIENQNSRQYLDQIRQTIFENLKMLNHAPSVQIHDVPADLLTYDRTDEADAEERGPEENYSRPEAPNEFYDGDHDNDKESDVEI
Sequence of HDAC3 (Q9Y618 389-480 partner limits assumed): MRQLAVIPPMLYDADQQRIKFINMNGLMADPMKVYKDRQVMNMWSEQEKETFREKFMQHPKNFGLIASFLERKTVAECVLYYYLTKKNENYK

HDAC6 = HDAC6 (Homo sapiens, UniProt Q9UBN7); assay: Inhibition of HDAC6 deacetylase activity in vitro; conditions: ratio of IC50 values
Sequence of HDAC6 (Q9UBN7 whole entry): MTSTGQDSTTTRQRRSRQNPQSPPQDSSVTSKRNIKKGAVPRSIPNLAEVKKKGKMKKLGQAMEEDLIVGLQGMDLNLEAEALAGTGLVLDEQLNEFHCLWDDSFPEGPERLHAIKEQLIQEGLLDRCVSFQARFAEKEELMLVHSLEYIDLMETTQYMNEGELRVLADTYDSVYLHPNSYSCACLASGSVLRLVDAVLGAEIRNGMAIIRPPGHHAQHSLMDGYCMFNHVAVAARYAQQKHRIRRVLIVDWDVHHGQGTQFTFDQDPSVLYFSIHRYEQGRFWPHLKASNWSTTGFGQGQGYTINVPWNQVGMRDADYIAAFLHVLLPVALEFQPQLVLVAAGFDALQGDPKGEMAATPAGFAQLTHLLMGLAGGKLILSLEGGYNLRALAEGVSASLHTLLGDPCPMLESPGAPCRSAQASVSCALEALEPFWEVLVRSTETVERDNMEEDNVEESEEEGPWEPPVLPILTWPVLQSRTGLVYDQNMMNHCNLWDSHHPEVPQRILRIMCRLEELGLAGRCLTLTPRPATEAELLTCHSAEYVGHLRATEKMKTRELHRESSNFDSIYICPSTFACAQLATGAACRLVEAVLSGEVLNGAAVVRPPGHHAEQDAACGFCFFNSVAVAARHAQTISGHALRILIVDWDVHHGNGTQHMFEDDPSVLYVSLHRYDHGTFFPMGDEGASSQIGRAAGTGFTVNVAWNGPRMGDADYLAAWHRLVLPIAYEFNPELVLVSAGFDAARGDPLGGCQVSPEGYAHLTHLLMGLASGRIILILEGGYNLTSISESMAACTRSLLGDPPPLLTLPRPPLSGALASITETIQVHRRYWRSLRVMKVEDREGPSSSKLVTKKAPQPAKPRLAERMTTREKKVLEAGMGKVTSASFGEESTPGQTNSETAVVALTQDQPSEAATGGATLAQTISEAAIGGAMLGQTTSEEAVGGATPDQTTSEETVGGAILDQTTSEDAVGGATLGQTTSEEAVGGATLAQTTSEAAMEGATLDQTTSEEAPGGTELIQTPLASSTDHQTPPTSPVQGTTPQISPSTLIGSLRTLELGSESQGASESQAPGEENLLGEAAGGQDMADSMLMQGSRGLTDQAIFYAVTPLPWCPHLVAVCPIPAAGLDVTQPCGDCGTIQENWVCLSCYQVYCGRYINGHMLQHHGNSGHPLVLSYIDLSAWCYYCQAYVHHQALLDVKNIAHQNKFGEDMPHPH

HDAC10 = HDAC10 (Homo sapiens, UniProt Q969S8); assay: Inhibition of HDAC10 deacetylase activity in vitro; conditions: ratio of IC50 values
Sequence of HDAC10 (Q969S8 whole entry): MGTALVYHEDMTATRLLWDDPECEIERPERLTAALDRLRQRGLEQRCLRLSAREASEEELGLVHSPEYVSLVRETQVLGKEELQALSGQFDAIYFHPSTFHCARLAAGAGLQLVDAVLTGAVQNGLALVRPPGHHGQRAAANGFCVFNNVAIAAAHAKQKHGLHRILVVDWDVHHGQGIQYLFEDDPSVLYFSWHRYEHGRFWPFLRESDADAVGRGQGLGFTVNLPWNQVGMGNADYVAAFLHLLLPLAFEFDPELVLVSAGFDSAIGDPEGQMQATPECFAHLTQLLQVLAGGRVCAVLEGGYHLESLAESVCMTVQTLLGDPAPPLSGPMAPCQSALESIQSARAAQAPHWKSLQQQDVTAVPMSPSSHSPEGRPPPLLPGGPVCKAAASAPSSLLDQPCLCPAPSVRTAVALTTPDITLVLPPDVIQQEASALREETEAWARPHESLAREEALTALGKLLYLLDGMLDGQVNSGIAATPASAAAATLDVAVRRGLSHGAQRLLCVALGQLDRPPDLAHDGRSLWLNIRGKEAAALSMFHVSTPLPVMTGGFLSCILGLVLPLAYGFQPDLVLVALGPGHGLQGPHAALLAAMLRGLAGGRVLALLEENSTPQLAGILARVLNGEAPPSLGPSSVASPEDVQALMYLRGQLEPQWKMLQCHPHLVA

Row | IC50 (HDAC8) [nM] | HDAC-1/HDAC-8 (HDAC1) | HDAC-2/HDAC-8 (HDAC2) | HDAC-3/HDAC-8 (HDAC3) | HDAC-6/HDAC-8 (HDAC6) | HDAC-10/HDAC-8 (HDAC10) | SMILES
1 | < 100 | A (A >10 and <100) |  |  |  |  | CCn1cc(Cc2ccccc2)c2cc(C(=O)NO)ccc21 [Compound 35, 1-ethyl-3-(phenylmethyl)-1H-indole-5-carboxylic acid hydroxyamide]
2 | < 100 | B (B >100) | B (B >100) | A (A >10 and <100) | A (A >10 and <100) | B (B >100) | Cn1cc(Cc2ccc(F)cc2)c2cc(C(=O)NO)ccc21 [Compound 39, 1-methyl-3-(4-fluoro-phenylmethyl)-1H-indole-5-carboxylic acid hydroxyamide]
3 | < 100 | A (A >10 and <100) |  |  |  |  | O=C(NO)c1ccc2ccn(Cc3ccc(Cl)c(Cl)c3)c2c1 [Compound 1, 1-(3,4-dichloro-phenylmethyl)-1H-indole-6-carboxylic acid hydroxyamide]
4 | < 100 | A (A >10 and <100) |  |  |  |  | Cc1ccccc1Cn1ccc2ccc(C(=O)NO)cc21 [Compound 2, 1-(2-methyl-phenylmethyl)-1H-indole-6-carboxylic acid hydroxyamide]
5 | < 100 | A (A >10 and <100) |  |  |  |  | Cn1cc(Cc2ccc(N)cc2)c2cc(C(=O)NO)ccc21 [Compound 38, 1-methyl-3-(4-amino-phenylmethyl)-1H-indole-5-carboxylic acid hydroxyamide]
6 | < 100 | A (A >10 and <100) |  |  |  |  | O=C(NO)c1ccc2ccn(Cc3ccccc3F)c2c1 [Compound 10, 1-(2-fluoro-phenylmethyl)-1H-indole-6-carboxylic acid hydroxyamide]
7 | < 100 | B (B >100) |  |  |  |  | O=C(NO)c1ccc2ccn(Cc3ccc(OC(F)(F)F)cc3)c2c1 [Compound 17, 1-[4-(trifluoromethoxy)-phenylmethyl]-1H-indole-6-carboxylic acid hydroxyamide]
8 | < 100 | A (A >10 and <100) |  |  |  |  | O=C(NO)c1ccc2ccn(Cc3ccccc3Cl)c2c1 [Compound 11, 1-(2-chloro-phenylmethyl)-1H-indole-6-carboxylic acid hydroxyamide]
9 | < 100 | A (A >10 and <100) |  |  |  |  | O=C(NO)c1ccc2ccn(Cc3ccc(F)cc3)c2c1 [Compound 9, 1-(4-fluoro-phenylmethyl)-1H-indole-6-carboxylic acid hydroxyamide]
10 | < 100 | B (B >100) |  |  |  |  | COc1ccc(Cn2ccc3ccc(C(=O)NO)cc32)cc1F [Compound 21, 1-(3-fluoro-4-methoxy-phenylmethyl)-1H-indole-6-carboxylic acid hydroxyamide]
11 | < 100 | A (A >10 and <100) |  |  |  |  | O=C(NO)c1ccc2ccn(CCCc3ccccc3)c2c1 [Compound 14, 1-(3-phenylpropyl)-1H-indole-6-carboxylic acid hydroxyamide]
12 | < 100 | A (A >10 and <100) |  |  |  |  | O=C(NO)c1ccc2ccn(Cc3cccc(F)c3)c2c1 [Compound 4, 1-(3-fluoro-phenylmethyl)-1H-indole-6-carboxylic acid hydroxyamide]
13 | < 100 | A (A >10 and <100) | B (B >100) | A (A >10 and <100) | A (A >10 and <100) | B (B >100) | Cn1cc(Cc2ccc([N+](=O)[O-])cc2)c2cc(C(=O)NO)ccc21 [Compound 34, 1-methyl-3-(4-nitro-phenylmethyl)-1H-indole-5-carboxylic acid hydroxyamide]
14 | < 100 | B (B >100) |  |  |  |  | Cc1ccc(Cn2ccc3ccc(C(=O)NO)cc32)cc1 [Compound 20, 1-(4-methyl-phenylmethyl)-1H-indole-6-carboxylic acid hydroxyamide]
15 | > 100 | A (A >10 and <100) |  |  |  |  | COc1cc(Cn2ccc3ccc(C(=O)NO)cc32)cc(OC)c1OC [Compound 3, 1-(3,4,5-trimethoxy-phenylmethyl)-1H-indole-6-carboxylic acid hydroxyamide]
16 | < 100 | A (A >10 and <100) |  |  |  |  | CC(C)n1cc(Cc2ccccc2)c2cc(C(=O)NO)ccc21 [Compound 37, 1-isopropyl-3-(phenylmethyl)-1H-indole-5-carboxylic acid hydroxyamide]
17 | < 100 | A (A >10 and <100) |  |  |  |  | O=C(NO)c1ccc2ccn(Cc3ccc4ccccc4c3)c2c1 [Compound 13, 1-(naphth-2-ylmethyl)-1H-indole-6-carboxylic acid hydroxyamide]
18 | < 100 | B (B >100) |  |  |  |  | O=C(NO)c1ccc2ccn(CC=Cc3ccccc3)c2c1 [Compound 16, 1-[1-(phenyl)-propen-3-yl]-1H-indole-6-carboxylic acid hydroxyamide]
19 | < 100 | A (A >10 and <100) |  |  |  |  | COc1cc(Cn2ccc3ccc(C(=O)NO)cc32)cc(OC)c1 [Compound 7, 1-(3,5-dimethoxy-phenylmethyl)-1H-indole-6-carboxylic acid hydroxyamide]
20 | < 100 | B (B >100) |  |  |  |  | O=C(NO)c1ccc2ccn(Cc3ccc(Cl)cc3)c2c1 [Compound 18, 1-(4-chloro-phenylmethyl)-1H-indole-6-carboxylic acid hydroxyamide]
21 | < 100 | B (B >100) |  |  |  |  | O=C(NO)c1ccc2ccn(Cc3ccc(OC(F)F)cc3)c2c1 [Compound 22, 1-[4-(difluoromethoxy)-phenylmethyl]-1H-indole-6-carboxylic acid hydroxyamide]
22 | < 100 | A (A >10 and <100) |  |  |  |  | O=C(NO)c1ccc2ccn(Cc3ccccc3)c2c1 [Compound 6, 1-(benzyl)-1H-indole-6-carboxylic acid hydroxyamide]
23 | < 100 | A (A >10 and <100) |  |  |  |  | COc1cccc(Cn2ccc3ccc(C(=O)NO)cc32)c1 [Compound 12, 1-(3-methoxy-phenylmethyl)-1H-indole-6-carboxylic acid hydroxyamide]
24 | < 100 | B (B >100) |  |  |  |  | O=C(NO)c1ccc2ccn(Cc3ccc4nonc4c3)c2c1 [Compound 19, 1-(benzo[2,1,3]oxadiazol-5-ylmethyl)-1H-indole-6-carboxylic acid hydroxyamide]
25 | < 100 | A (A >10 and <100) |  |  |  |  | O=C(NO)c1ccc2ccn(CC3CCCCC3)c2c1 [Compound 15, 1-(cyclohexylmethyl)-1H-indole-6-carboxylic acid hydroxyamide]
26 | < 100 | A (A >10 and <100) |  |  |  |  | Cc1cccc(Cn2ccc3ccc(C(=O)NO)cc32)c1 [Compound 5, 1-(3-methyl-phenylmethyl)-1H-indole-6-carboxylic acid hydroxyamide]
27 | < 100 | A (A >10 and <100) |  |  |  |  | CC(c1ccccc1)n1ccc2ccc(C(=O)NO)cc21 (stereo not shown) [Compound 8, 1-(1-methyl-1-phenylmethyl)-1H-indole-6-carboxylic acid hydroxyamide]
28 | < 100 | A (A >10 and <100) |  |  |  |  | Cn1cc(Cc2ccc(NC(=O)c3ccccc3)cc2)c2cc(C(=O)NO)ccc21 [Compound 36, 1-methyl-3-[4-(phenylcarbonylamino)-phenylmethyl]-1H-indole-5-carboxylic acid hydroxyamide]
